Here are results for 9 molecules from patent US20040171489A1, “Synergistic active compound combinations for controlling harmful plants” (priority 1998, published 2004).

In series [1] the test system is Matricaria chamomilla. The series can be described thus: Example 14 field trial, 2- to 4-leaf stage: herbicidal effect. Particulars: 28 days after application. Format: in vivo. The method, then: (§1) The herbicidal efficacy of the active compounds or active compound mixtures was scored visually using the treated plots in comparison to untreated control plots. The damage and development of all above-ground parts of the plants were recorded. Scoring was carried out using a percentage scale (100% effect=all plants killed; 50% effect=50% of the plants and the green parts of the plants killed; 0% effect=no noticeable effect=like control plot. The scores of in each case 4 plots were averaged.
(§2) If the observed activity values already exceed the formal sum of the values for the trials with the individual applications, they also exceed the expected value according to Colby which is calculated using the following formula and which is likewise considered to be an indication of synergism (cf. S. R. Colby; in Weeds 15 (1967) p. 20 to 22):
(§3) Crop plants were grown outdoors on plots under natural outdoor conditions, and seeds or rhizome pieces of typical harmful plants were laid out or the natural weed growth was utilized. Treatment with the compositions according to the invention was carried out after the harmful plants had emerged and the crop plants were, generally, at the 2- to 4-leaf stage; in some cases (as stated), application of individual active compounds or active compound combinations was carried out pre-emergence (cf. Section 1) or post-emergence (cf. Section 2) or as a sequential treatment partly pre-emergence and/or post-emergence. After the application, for example 2, 4, 6 and 8 weeks after the application, the effect of the preparations was scored visually by comparison with untreated controls (cf. scoring in Section 1). In the field trial as well, the compositions according to the invention have synergistic herbicidal activity against a broad spectrum of economically important weed grasses and broad-leaved weeds. […] Moreover, the effects in essential phases of the scoring period were above the expected values according to Colby, also indicating synergism. In contrast, the crop plants were, as a consequence of the treatments with the herbicidal compositions, damaged only to a small degree, if at all.

Series [2] has as its system summer wheat. Briefly: Example 14 field trial, 2- to 4-leaf stage: crop damage. Format: in vivo, Triticum aestivum. The note with it: 28 days after application. The method, then:
The damage and development of all above-ground parts of the plants were recorded.
Crop plants were grown outdoors on plots under natural outdoor conditions, and seeds or rhizome pieces of typical harmful plants were laid out or the natural weed growth was utilized.

For series [3], the system named is summer wheat. Briefly: Example 13 field trial, 2- to 4-leaf stage: crop damage. Format: in vivo, Triticum aestivum. The note with it: 17 days after application. The method, then: as §1, §2, §3
The test system of series [4] is Sorghum verticilliflorum. Briefly: Example 13 field trial, 2- to 4-leaf stage: herbicidal effect. The format is in vivo. The note with it: 17 days after application. The method, then:
as §1, §2, §3

For series [5], the system named is Lamium purpurea. The series can be described thus: Example 12 field trial, 2- to 4-leaf stage: herbicidal effect. The format is in vivo. The note with it: 42 days after application. The method, then:
as §1, §2, §3

The subject of series [6] is winter wheat. Briefly: Example 12 field trial, 2- to 4-leaf stage: crop damage. The format is in vivo, Triticum aestivum. The method, then: as §1, §2, §3
In series [7] the test system is Monochoria vaginalis. Briefly: Example 22 field trial, 2-leaf stage: herbicidal effect. Format: in vivo. The note with it: 60 g of ai/ha; 14 days after application. The method, then:
as §1, §2, §3

Series [8] relates to Oryza sativa (rice). The series can be described thus: Example 22 field trial, 2-leaf stage: crop damage. The format is in vivo. The note with it: 60 g of ai/ha; 14 days after application. The method, then:
as §1, §2, §3

The subject of series [9] is winter barley. The series can be described thus: Example 5 field trial, 2-4 leaf stage: crop damage. Format: in vivo, Hordeum vulgare. Particulars: winter barley (Hordeum vulgare), in vivo, 28 days. The method, then:
as §1, §2
as §3, with “In contrast, the crop plants were, as a consequence of the treatments with the herbicidal compositions, damaged only to a small degree, if at all.” left out

The subject of series [10] is Papaver rhoeas. Briefly: Example 5 field trial, 2-4 leaf stage: herbicidal effect. Format: in vivo. The note with it: 2.5 g of ai/ha; 28 days after application. The method, then: as §1, §2
as §3, with “In contrast, the crop plants were, as a consequence of the treatments with the herbicidal compositions, damaged only to a small degree, if at all.” left out

In series [11] the test system is winter wheat. Briefly: Example 11 field trial, 2- to 4-leaf stage: crop damage. The format is in vivo, Triticum aestivum. The note with it: 28 days after application. The method, then: as §1, §2, §3
Series [12] relates to Capsella bursa-pastoris. The series can be described thus: Example 11 field trial, 2- to 4-leaf stage: herbicidal effect. Particulars: 28 days after application. The format is in vivo. The method, then:
as §1, §2, §3

Series [13] deals with Galium aparine. Briefly: Example 10 pre-emergence application, fall: herbicidal effect. The note with it: 250 g of ai/ha; 169 days after application. Format: in vivo.
Source text: (§4) Seeds or rhizome pieces of monocotyledonous and dicotyledonous weed plants are placed in sandy loam soil in pots and covered with soil. The compositions, formulated in the form of concentrated aqueous solutions, wettable powders or emulsion concentrates, are then applied to the surface of the soil cover as aqueous solution, suspension or emulsion at an application rate of 600 to 800 l of water/ha (converted), in various dosages. After the treatment, the pots are placed in a greenhouse and kept under good growth conditions for the weeds. After the test plants have emerged, the damage to the plants or the negative effects on the emergence is scored visually after a test period of 3 to 4 weeks by comparison with untreated controls. As shown by the test results, the compositions according to the invention have good herbicidal pre-emergence activity against a broad spectrum of weed grasses and broad-leaved weeds.
as §1, §2, §3

Series [14] has as its system winter wheat. The series can be described thus: Example 10 pre-emergence application, fall: crop damage. Format: in vivo, Triticum aestivum. The note with it: 250 g of ai/ha; 169 days after application.
Source text: as §4, §1, §2, §3

Structures can show the parent of a compound that is named as a salt.

`Cc1cc(Cl)ccc1O[C@@H](C)C(=O)O` [(B2.2.4), mecoprop-P]: the “herbicidal effect, MATCH” value in series [1] (750 g of ai/ha) was found to be 54%; in series [1] (1500 g of ai/ha) it was 63%. The “damage, TRZAS” value in series [2] (750 g of ai/ha) and in series [2] (1500 g of ai/ha) was 0% each time.

With `N#Cc1cc(Br)c(O)c(Br)c1` [(B2.3.1), bromoxynil], the “damage, TRZAS” value in series [3] (225 g of ai/ha) and in series [3] (450 g of ai/ha) was 0% each time. Further, the “herbicidal effect, SORVE” value is reported as 0% in [4] (225 g of ai/ha) and 25% in [4] (450 g of ai/ha).

Turning to `N#Cc1cc(I)c(O)c(I)c1` [(B2.3.2), ioxynil], the “herbicidal effect, MATCH” value stood at 30% in [1] (187 g of ai/ha) and 45% in series [1] (375 g of ai/ha).

`COc1ncc(F)c2nc(S(=O)(=O)Nc3c(F)cccc3F)nn12` [(B2.5.2), florasulam]: the “herbicidal effect, LAMPU” value in series [5] (3.7 g of ai/ha) is reported as 35%; in series [5] (7.5 g of ai/ha), 35%; in [5] (15 g of ai/ha), 40%. Also, the “damage, TRZAW” value is 3% in [6] (3.7 g of ai/ha, 42 days after application); 3% in [6] (7.5 g of ai/ha, 42 days after application); 6% in series [6] (15 g of ai/ha, 42 days after application).

`CCOC(=O)C(Cl)Cc1cc(-n2nc(C)n(C(F)F)c2=O)c(F)cc1Cl` (centres unmarked) [(B2.6.3), carfentrazone-ethyl, reference compound]: the “herbicidal effect, MOOVA” value in series [7] is recorded as 47%. Besides, the “damage, ORYSA” value in [8] is 0%.

`CCOC(=O)/C(Cl)=C/c1cc(N2C(=O)C3=C(CCCC3)C2=O)ccc1Cl` [(B2.6.8), cinidon-ethyl]: the “herbicidal effect, LAMPU” value in series [5] (25 g of ai/ha) and in series [5] (50 g of ai/ha) was 60% in each case. The “damage, TRZAW” value in series [6] (in vivo) amounted to 3%.

Regarding `COc1nc(C)nc(NC(=O)NS(=O)(=O)c2cc(I)ccc2C(=O)O)n1` [(B3.1.4), iodosulfuron-methyl sodium salt, reference compound], in series [9], the “damage, HORVW” value is on record as 0%. For the same molecule, in [10], the “herbicidal effect, PAPRH” value is listed as 0%.

In the case of `O=C(Nc1ccc(F)cc1F)c1cccnc1Oc1cccc(C(F)(F)F)c1` [(B3.4.2), diflufenican, reference compound], the “damage, TRZAW” value in series [11] (75 g of ai/ha) and in series [11] (150 g of ai/ha) was 0% in each case. For the same molecule, the “herbicidal effect, CAPPBP” value was 45% in series [12] (75 g of ai/ha) and 67% in series [12] (150 g of ai/ha).

For the molecule `CNC1=C(c2cccc(C(F)(F)F)c2)C(=O)C(c2ccccc2)O1` (centres unmarked) [(B3.4.4), flurtamone], in [13], the “herbicidal effect, GALAP” value came to 50%. The “damage, TRZAW” value in [14] is given as 2%.
